Results published in patent US9717703B2, “Emulsion and emulsion preconcentrate compositions comprising omega-3 fatty acids and uses thereof are disclosed” (GLAXOSMITHKLINE LLC, priority 2009, dated 2017).

Experiment: Clinical study Part B, two-week repeat dose plasma EPA/DHA pharmacokinetics
Conditions: human, in vivo
From the text: Part A comprised single dose administration of emulsion pre-concentrate capsules or liquid emulsion equivalent to 1.68 g LOVAZA®. Part B comprised two-week, repeat dosing of selected doses of the emulsion pre-concentrate capsules. […] Part B was a single blind, randomized, parallel group, placebo controlled study consisting of a 2-week repeat dose period with 3 dose levels of the K85EE emulsion pre-concentrate capsules, and one dose of LOVAZA®. Within each cohort, at least eight healthy subjects were randomized to an active treatment group, and at least 2 subjects were randomized to a matching placebo (1000 mg capsule containing corn oil, NF 994 mg and D-Alpha Tocopherol, USP 6 mg). Data from placebo subjects was pooled for analysis. Subjects, checked into the clinical research unit, participated in a test meal on Day -2 and had 24-hr baseline EPA/DHA profiles on Day -1 and Day 1. Subjects were released from the clinic on Day 2, and returned for daily dosing on Days 3 through 12 (with a brief outpatient visit on Day 6). Subjects checked into the clinic again on the evening of Day 12, and on Day 13 they had 24-hr EPA/DHA profiles collected. Subjects were released from the clinic on Day 14, following procedures including a test meal and triglyceride sampling. In Part B, subjects were assigned to either a) one of 3 dose levels of the K85EE emulsion pre-concentrate capsules, b) LOVAZA®, or c) to placebo to match one of the 4 active treatments. Subjects were blinded as to whether they were receiving an active treatment or the corresponding placebo. The randomization ratio for active:placebo within each cohort was 4:1. Part B treatments are summarized below: The K85EE emulsion pre-concentrate capsules and LOVAZA® were administered as capsules, once daily in the manner described for Part A, and the placebos were administered as for the corresponding active treatment. Subjects were required to fast only on PK sampling days. Plasma EPA and DHA concentrations were determined according to the above method.

## omega-3-acid ethyl esters [LOVAZA]
  Free DHA AUC (0-24 h) Geometric LS Mean, Ref. (Day 1): 5.61 µg·h/mL
  Free DHA AUC (0-24 h) Geometric LS Mean, Test (Day 13): 9.40 µg·h/mL
  Free DHA Cmax Geometric LS Mean, Ref. (Day 1): 0.43 µg/mL
  Free DHA Cmax Geometric LS Mean, Test (Day 13): 0.79 µg/mL
  Free EPA AUC (0-24 h) Geometric LS Mean, Ref. (Day 1): 1.66 µg·h/mL
  Free EPA AUC (0-24 h) Geometric LS Mean, Test (Day 13): 3.22 µg·h/mL
  Free EPA Cmax Geometric LS Mean, Ref. (Day 1): 0.09 µg/mL
  Free EPA Cmax Geometric LS Mean, Test (Day 13): 0.20 µg/mL
  Total DHA AUC (0-24 h) Geometric LS Mean, Ref. (Day 1): 810.21 µg·h/mL
  Total DHA AUC (0-24 h) Geometric LS Mean, Test (Day 13): 1356.51 µg·h/mL
  Total DHA Cmax Geometric LS Mean, Ref. (Day 1): 38.29 µg/mL
  Total DHA Cmax Geometric LS Mean, Test (Day 13): 65.37 µg/mL
  Total EPA AUC (0-24 h) Geometric LS Mean, Ref. (Day 1): 251.67 µg·h/mL
  Total EPA AUC (0-24 h) Geometric LS Mean, Test (Day 13): 611.34 µg·h/mL
  Total EPA Cmax Geometric LS Mean, Ref. (Day 1): 12.86 µg/mL
  Total EPA Cmax Geometric LS Mean, Test (Day 13): 30.84 µg/mL
